“And” between values parts separate entries of the source, which are not always exact repeats. Identical values can stand only once.
Assays:
[1] = Determination of the surface tension of the UV absorbers; format: physicochemical; conditions: 25° C.; UV absorber concentrations from about 1 mg/l to 5,000 mg/l; water to air
Method: The surface tension (ST) of the UV absorbers was determined at 25° C. at concentrations of the UV absorber of from about 1 mg/l to 5,000 mg/l. The ST of water to air is, for comparison, 72.4 mN/m, the ST of commercial surfactants is about 30-35 mN/m.

[2] = Light exposure of dried metaflumizone formulation with UV absorber (Atlas Suntest, seven days), residual content by UPLC; format: physicochemical; conditions: 100 g/l metaflumizone, 40 g/l UV absorber, exposed to light seven days, unexposed blank = 100%
Method: A formulation comprising 100 g/l of metaflumizone and 40 g/l of UV absorber was prepared by two different methods: a) Wet grinding with subsequent addition of UV absorber as in Example 9. b) Wet grinding with UV absorber as in Example 8. About 20 mg of the mixture prepared in this way were applied to a microscope slide, allowed to dry on for 30 minutes and exposed to light continuously for seven days (Atlas Suntest CRT plus, “Outdoor” setting, exposure to light corresponds to the same spectrum and intensity as normal sunlight at midday in summer). After the exposure time, the samples were dissolved in dimethylsulfoxide. […] For comparison, a sample without UV absorber was also allowed to run (reference) in each exposure series. Evaluation: 2 samples were dissolved again as blank samples immediately after the drying on, without exposure to light, and the content of metaflumizone was determined. The resulting mean was set at 100% and the remaining samples were standardized against this.

[3] = formulation by method a) (wet grinding, subsequent addition of UV absorber)

Row | Compound | ST [mN/m] (surface tension) [1] | Residual content of metaflumizone (%) [2, 3] | Residual content of metaflumizone (%) ([2]; formulation by method b) (wet grinding with UV absorber))
1 | 2-cyano-3,3-diphenylacrylic acid [EO-tridecanol]ester [Example 2D] | 33.9 | – | –
2 | COCCOCCOCCOCCOCCOCCOCCOC(=O)COc1ccc(C(=O)c2ccccc2)c(O)c1 [Example 3B, (4-benzoyl-3-hydroxy-phenoxy)-acetic acid [Pluriol A350E] ester] | 45.7 | 85.9% and 83.2% | 82.8
3 | 2,4,6-trianilino-p-(carboxy-[Pluriol A500E]-yl)-1,3,5-triazine [Example 4B] | – | 77.5% | –
4 | p-Aminobenzoic acid ethoxylate [Uvinul P25, reference compound] | – | 53.3% | –
5 | 2-cyano-3,3-diphenyl-acrylic acid [Pluriol A500E] ester [Example 2B] | – | 76.7% | –

Next, values leading:

Row | ST [mN/m] (surface tension) [1] | Residual content of metaflumizone (%) [2, 3] | Residual content of metaflumizone (%) ([2]; formulation by method b) (wet grinding with UV absorber)) | Compound
6 | 43.1 | 87.1% | – | COCCOCCOCCOCCOCCOCCOCCOC(=O)C(C#N)=C(c1ccccc1)c1ccccc1 [Example 2A, 2-cyano-3,3-diphenyl-acrylic acid [Pluriol A350E] ester]
7 | – | 74.7% | – | 3,6,9,12-tetraoxatridecylcinnamic acid amide [Example 6A]
8 | – | 66.5% | – | COCCOCCOCCOCCOC(=O)C=Cc1ccccc1 [Example 6B, cinnamic acid 3,6,9,12-tetraoxatridecyl ester]
